These are literature values, as cited in patent US12268679B1 (priority 2021, dated 2025).

The structures appear in SMILES notation.

The target in one series is human delta receptor (Homo sapiens, UniProt P41143). The note with it: Ferrari et al. 2017.
For series [1] the following is noted: animal studies, systemic administration, Hirao et al. 2008.

Chain of human delta receptor (P41143 whole entry): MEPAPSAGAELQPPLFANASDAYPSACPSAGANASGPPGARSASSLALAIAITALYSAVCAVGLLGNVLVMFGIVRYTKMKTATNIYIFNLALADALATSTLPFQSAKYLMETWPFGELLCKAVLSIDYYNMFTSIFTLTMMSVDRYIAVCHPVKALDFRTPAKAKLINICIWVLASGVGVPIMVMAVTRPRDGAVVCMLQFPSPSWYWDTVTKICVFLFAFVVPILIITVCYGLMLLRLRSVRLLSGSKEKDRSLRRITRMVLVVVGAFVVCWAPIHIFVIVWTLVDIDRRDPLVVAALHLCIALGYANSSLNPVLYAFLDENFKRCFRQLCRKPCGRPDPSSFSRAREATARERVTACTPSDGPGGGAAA

Consider `CC1(N2CCC(n3c([C@@H]4CCCNC4)nc4ccccc43)CC2)CCCCCCC1` [MCOPPB, 1-[1-(1-methylcyclooctyl)-4-piperidinyl]-2-[(3R)-3-piperidinyl]-1H-benzimidazole], for which the “activation of human delta receptor” value at human delta receptor is given as “only a small amount”. In series [1], the “inhibition of memory or motor function” value was “no inhibition of memory or motor function”. Further, the sedative side effects entry in series [1] (appear only at much higher doses than the effective anxiolytic dose range) is reported as “only slight sedative side effects”.
